From ChEMBL document CHEMBL5506055, “Hit-to-Lead Optimization of the Natural Product Oridonin as Novel NLRP3 Inflammasome Inhibitors with Potent Anti-Inflammation Activity” (J Med Chem, 2024)
Calls of active or inactive are those of the source. The rule behind the calls is not given here.

Tests used:
[1] = biological target: NACHT, LRR and PYD domains-containing protein 3 (Mus musculus) (UniProt Q8R4B8); assay: (§1) Inhibition of NLRP3 inflammasome activation in LPS/ATP-induced C57BL/6 mouse BMDMs assessed as reduction in IL-1beta secretion at 100 nM preincubated with LPS for 4 hrs followed by compound addition for 30 mins and further stimulated with ATP for 30 mins by ELISA relative to control; type: cell-based; conditions: BMDM, time 1.0 hrs
[2] = biological target: NACHT, LRR and PYD domains-containing protein 3 (Mus musculus) (UniProt Q8R4B8); assay: as §1, with “50 to 200” for “100”, “Western blotting analysis” for “ELISA”, “oridonin” for “control”; type: cell-based; conditions: BMDM, dose 50-200 nM, time 1.0 hrs
[3] = biological target: NACHT, LRR and PYD domains-containing protein 3 (Mus musculus) (UniProt Q8R4B8); assay: Inhibition of NLRP3 inflammasome activation in LPS-induced C57BL/6 mouse BMDMs assessed as effect on p65 expression at 50 to 200 nM preincubated for 24 hrs followed by LPS addition for 4 hrs by Western blotting analysis; type: cell-based; conditions: BMDM, dose 50-200 nM, time 28.0 hrs
[4] = biological target: NACHT, LRR and PYD domains-containing protein 3 (Mus musculus) (UniProt Q8R4B8); assay: Inhibition of NLRP3 inflammasome activation in LPS-induced C57BL/6 mouse BMDMs assessed as reduction in NLRP3 mRNA level at 50 to 200 nM preincubated for 24 hrs followed by LPS addition for 4 hrs by qRT-PCR analysis; type: cell-based; conditions: BMDM, dose 50-200 nM, time 28.0 hrs
[5] = biological target: NACHT, LRR and PYD domains-containing protein 3 (Mus musculus) (UniProt Q8R4B8); assay: Inhibition of NLRP3 inflammasome activation in LPS/nigericin-induced C57BL/6 mouse BMDMs at 200 nM preincubated with LPS for 4 hrs followed by compound addition for 30 mins and further stimulated with nigericin for 30 mins by ELISA; type: cell-based; conditions: BMDM, time 1.0 hrs
[6] = biological target: NACHT, LRR and PYD domains-containing protein 3 (Mus musculus) (UniProt Q8R4B8); assay: Inhibition of NLRP3 inflammasome activation in LPS/MSU-induced C57BL/6 mouse BMDMs at 200 nM preincubated with LPS for 4 hrs followed by compound addition for 30 mins and further stimulated with MSU for 6 hrs by ELISA; type: cell-based; conditions: BMDM, time 6.5 hrs
[7] = biological target: NACHT, LRR and PYD domains-containing protein 3 (Mus musculus) (UniProt Q8R4B8); assay: Inhibition of NLRP3 inflammasome activation in LPS/alum-induced C57BL/6 mouse BMDMs at 200 nM preincubated with LPS for 18 hrs followed by compound addition for 30 mins and further stimulated with alum for 8 hrs by ELISA; type: cell-based; conditions: BMDM, time 8.5 hrs
[8] = biological target: NACHT, LRR and PYD domains-containing protein 3 (Mus musculus) (UniProt Q8R4B8); assay: Inhibition of NLRP3 inflammasome activation in LPS-induced C57BL/6 mouse BMDMs assessed as reduction in IL-1beta level preincubated with Pam3CSK4 for 3 hrs followed by compound addition for 30 mins and further LPS transfected with Lipo-3000 for 16 hrs by ELISA; type: cell-based; conditions: BMDM, dose 50-200 nM, time 16.5 hrs
[9] = biological target: T1, Interferon-inducible protein AIM2 (Mus musculus) (UniProt Q91VJ1); assay: Inhibition of AIM2 inflammasome activation in LPS/flagellin-induced C57BL/6 mouse BMDMs at 200 nM […] for 4 hrs followed by compound addition for 30 mins and further stimulated with flagellin for 4 hrs; type: cell-based; conditions: BMDM, time 4.5 hrs
T1 sequence (whole entry): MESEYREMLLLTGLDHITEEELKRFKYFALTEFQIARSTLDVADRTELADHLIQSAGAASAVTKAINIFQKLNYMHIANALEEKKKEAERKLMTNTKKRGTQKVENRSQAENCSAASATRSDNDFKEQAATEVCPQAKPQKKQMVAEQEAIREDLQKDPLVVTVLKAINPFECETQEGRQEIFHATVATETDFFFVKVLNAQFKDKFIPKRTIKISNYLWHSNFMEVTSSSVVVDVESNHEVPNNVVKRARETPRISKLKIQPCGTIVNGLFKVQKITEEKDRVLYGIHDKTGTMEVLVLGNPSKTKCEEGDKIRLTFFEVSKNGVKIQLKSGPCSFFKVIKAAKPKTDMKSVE

[10] = biological target: NACHT, LRR and PYD domains-containing protein 3 (Mus musculus) (UniProt Q8R4B8); assay: (§2) Inhibition of NLRP3 inflammasome activation in LPS/ATP-induced C57BL/6 mouse BMDMs assessed as inhibition of ASC oligomerization by measuring reduction in pro-caspase-1 expression at 50 to 200 nM preincubated with LPS for 4 hrs followed by compound addition for 30 mins and further stimulated with ATP for 30 mins by Western blotting analysis; type: cell-based; conditions: BMDM, dose 50-200 nM, time 1.0 hrs
[11] = biological target: NACHT, LRR and PYD domains-containing protein 3 (Mus musculus) (UniProt Q8R4B8); assay: as §2, with “ASC” for “pro-caspase-1”; type: cell-based; conditions: BMDM, dose 50-200 nM, time 1.0 hrs
[12] = biological target: Nlrp3/Pycard (Mus musculus) (UniProt Q8R4B8+Q9EPB4); assay: Inhibition of NLRP3/ASC protein-protein interaction in LPS/ATP-induced C57BL/6 mouse BMDMs at 200 nM preincubated with LPS for 4 hrs followed by compound addition for 30 mins and further stimulated with ATP for 30 mins by Western blotting analysis; type: cell-based; conditions: BMDM, time 1.0 hrs
[13] = biological target: NACHT, LRR and PYD domains-containing protein 3 (Mus musculus) (UniProt Q8R4B8); assay: Binding affinity to NLRP3 in mouse BMDMs at 100 uM incubated for 30 mins by CETSA; type: cell-based; conditions: BMDM
[14] = biological target: NACHT, LRR and PYD domains-containing protein 3 (Mus musculus) (UniProt Q8R4B8); assay: Binding affinity to NLRP3 in mouse BMDMs at 10^-2 to 10^3 uM incubated for 10 to 90 mins by ITDRF; type: cell-based; conditions: BMDM, dose 0.01-1000 µM, time 10-90 min
BMDM [15] = assay: Inhibition of mitochondrial damage in mouse BMDMs at 200 nM preincubated with LPS for 4 hrs followed by compound addition for 30 mins and further stimulated with ATP for 30 mins by confocal microscopic analysis; type: functional, cell-based; conditions: time 1.0 hrs
BMDM [16] = assay: Inhibition of mitochondrial ROS production in mouse BMDMs at 200 nM preincubated with LPS for 4 hrs followed by compound addition for 30 mins and further stimulated with ATP for 30 mins by confocal microscopic analysis; type: functional, cell-based; conditions: time 1.0 hrs
[17] = Stability in human plasma assessed as half life measured upto 8 hrs; type: ADME, cell-free
[18] = Stability in rat liver microsomes assessed as half life preincubated for 5 mins with NADPH followed by compound addition and measured upto 120 mins by LC-MS/MS analysis; type: ADME, Microsome; conditions: time < 125 min
[19] = Half-life in ICR mouse at 1 mg/kg, iv measured upto 24 hrs by LC-MS/MS method; type: ADME, organism-based; conditions: in vivo
[20] = Cmax in ICR mouse at 10 mg/kg, po measured upto 24 hrs by LC-MS/MS method; type: ADME, organism-based; conditions: in vivo
[21] = AUC in ICR mouse at 10 mg/kg, po measured upto 24 hrs by LC-MS/MS method; type: ADME, organism-based; conditions: in vivo, po, 10 mg/kg, 24 h
[22] = AUC in ICR mouse at 1 mg/kg, iv measured upto 24 hrs by LC-MS/MS method; type: ADME, organism-based; conditions: in vivo, iv, 1 mg/kg, 24 h
[23] = Clearance in ICR mouse at 1 mg/kg, iv measured upto 24 hrs by LC-MS/MS method; type: ADME, organism-based; conditions: in vivo
[24] = Oral bioavailability in ICR mouse at 10 mg/kg measured upto 24 hrs by LC-MS/MS method; type: ADME, organism-based; conditions: in vivo, po, 10 mg/kg, 24 h
Mus musculus [25] = assay: Antiinflammatory activity in C57BL/6 mouse model of arthritis assessed as reduction in MSU-induced TNFalpha secretion at 12.5 to 25 mg/kg, iv measured upto 24 hrs; type: functional, organism-based; conditions: dose 12.5-25 mg/kg
Mus musculus [26] = assay: Antiinflammatory activity in MSU-induced C57BL/6 mouse model of arthritis at 100 mg/kg, po measured upto 24 hrs; type: functional, organism-based
Mus musculus [27] = assay: Antiinflammatory activity in MSU-induced C57BL/6 mouse model of arthritis assessed as reduction in inflammatory cell infiltration at 100 mg/kg, po measured after 24 hrs; type: functional, organism-based

NACHT, LRR and PYD domains-containing protein 3 (Mus musculus), sequence (Q8R4B8 whole entry, the tested form may be a part): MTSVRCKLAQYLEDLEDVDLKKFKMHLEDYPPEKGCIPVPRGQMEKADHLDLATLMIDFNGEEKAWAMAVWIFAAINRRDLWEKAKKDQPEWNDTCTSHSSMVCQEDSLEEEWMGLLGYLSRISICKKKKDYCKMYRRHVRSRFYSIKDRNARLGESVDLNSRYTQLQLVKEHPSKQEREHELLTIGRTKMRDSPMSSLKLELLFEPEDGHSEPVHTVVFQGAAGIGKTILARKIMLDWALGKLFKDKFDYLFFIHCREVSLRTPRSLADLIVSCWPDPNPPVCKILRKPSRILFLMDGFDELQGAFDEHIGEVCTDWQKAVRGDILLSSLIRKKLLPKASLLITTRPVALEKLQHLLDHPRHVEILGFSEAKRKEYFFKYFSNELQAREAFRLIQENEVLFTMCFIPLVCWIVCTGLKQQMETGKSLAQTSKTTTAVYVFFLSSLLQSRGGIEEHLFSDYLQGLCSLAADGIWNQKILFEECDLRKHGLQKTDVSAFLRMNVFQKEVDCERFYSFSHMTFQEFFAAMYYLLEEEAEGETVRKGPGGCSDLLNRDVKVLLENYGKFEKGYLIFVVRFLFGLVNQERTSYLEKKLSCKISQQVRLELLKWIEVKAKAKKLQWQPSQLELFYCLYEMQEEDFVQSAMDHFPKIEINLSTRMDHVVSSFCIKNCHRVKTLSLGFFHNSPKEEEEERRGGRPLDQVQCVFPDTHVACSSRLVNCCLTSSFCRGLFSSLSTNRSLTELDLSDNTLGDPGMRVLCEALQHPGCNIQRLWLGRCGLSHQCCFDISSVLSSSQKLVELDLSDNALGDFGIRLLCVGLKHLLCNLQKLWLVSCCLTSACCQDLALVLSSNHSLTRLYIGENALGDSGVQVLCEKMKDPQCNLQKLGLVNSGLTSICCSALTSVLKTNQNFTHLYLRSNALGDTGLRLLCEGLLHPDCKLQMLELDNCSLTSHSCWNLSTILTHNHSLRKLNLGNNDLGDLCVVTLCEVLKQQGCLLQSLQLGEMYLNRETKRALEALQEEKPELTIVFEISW
Nlrp3/Pycard (Mus musculus), sequence (Q8R4B8 whole entry, looked up, the tested form may be a part): as the sequence (Q8R4B8 whole entry, the tested form may be a part) above
Nlrp3/Pycard (Mus musculus), sequence (Q9EPB4 whole entry, looked up, the tested form may be a part): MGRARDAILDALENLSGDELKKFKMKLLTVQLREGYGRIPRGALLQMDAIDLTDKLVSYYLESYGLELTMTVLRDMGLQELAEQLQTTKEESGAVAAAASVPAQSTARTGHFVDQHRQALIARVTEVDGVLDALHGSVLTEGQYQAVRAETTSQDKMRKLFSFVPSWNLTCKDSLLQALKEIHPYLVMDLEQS

- inhibition [1]: 64.3%
- inhibition [2]: Active
- inhibition [3]: inactive
- inhibition [4]: inactive
- inhibition [5]: Active
- inhibition [6]: Active
- inhibition [7]: Active
- inhibition [8]: Dose-Dependent Effect
- inhibition [9]: Active
- inhibition [10]: inactive
- inhibition [11]: inactive
- inhibition [12]: Active
- Activity [13]: Active
- Activity [14]: Active
- half-life [17]: 6.92 h
- half-life [18]: 3.19 h
- half-life [19]: 1.98 h
- Cmax [20]: 0.279 µg/mL
- AUC [21]: 0.5255 µg·h/mL
- AUC [22]: 0.242 µg·h/mL
- clearance [23]: 4.15 L/h/kg
- F [24]: 9%
SMILES: C=C1C(=O)[C@]23[C@H](O)[C@H]1CC[C@H]2[C@]12C=CCC(C)(C)[C@H]1[C@H](O)[C@@]3(OCCC(=O)O)OC2
- inhibition (BMDM [15]): inactive
- inhibition (BMDM [16]): inactive
- Activity (Mus musculus [25]): Active
- Activity (Mus musculus [26]): Active
- Activity (Mus musculus [27]): Active
